For test [1], the target named is human PD-L1 (Homo sapiens (Human), UniProt Q9NZQ7). As to the kind of experiment: T cell activation luciferase reporter cell culture system (T Cell Activation Assay). The class given is cell-based. The settings on record: luciferase reporter assay; PD-L1 aAPC/CHO-K1 cells with PD-1 effector Jurkat T cells.
For test [2], the target named is PD-L1 His protein / PD-1 Fc protein (Homo sapiens (Human), UniProt Q9NZQ7). The test can be described thus: HTRF Assay (PD-1/PD-L1 interaction). The format is binding. The settings on record: PD-L1 His 6 nM, PD-1 Fc 6 nM. On the technique in general: TR-FRET usually uses a lanthanide donor and a delayed reading to cut background.

As a reminder, the EC50 is the concentration at which the effect is half-maximal. Read a low EC50 as greater potency. The IC50 is the concentration that gives 50% inhibition.

Structures are written as SMILES.

human PD-L1, sequence (Q9NZQ7 19-290): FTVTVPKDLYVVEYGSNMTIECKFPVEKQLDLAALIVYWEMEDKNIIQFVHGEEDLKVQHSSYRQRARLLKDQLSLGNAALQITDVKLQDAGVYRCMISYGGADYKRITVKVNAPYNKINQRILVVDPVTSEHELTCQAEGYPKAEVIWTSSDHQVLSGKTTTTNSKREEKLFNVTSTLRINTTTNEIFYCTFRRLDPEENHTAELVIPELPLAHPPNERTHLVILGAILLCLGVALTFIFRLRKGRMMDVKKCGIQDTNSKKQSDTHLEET
PD-L1 His protein / PD-1 Fc protein, sequence (Q9NZQ7 19-238): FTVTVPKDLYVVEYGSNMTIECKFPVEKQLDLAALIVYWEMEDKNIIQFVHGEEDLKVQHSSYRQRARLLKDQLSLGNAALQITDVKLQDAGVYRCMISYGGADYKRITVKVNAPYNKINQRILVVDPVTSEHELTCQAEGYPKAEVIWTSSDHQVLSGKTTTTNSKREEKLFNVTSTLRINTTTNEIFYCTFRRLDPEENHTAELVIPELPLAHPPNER

On to `COc1cc(-c2ncnc(-c3cccc(-c4ccc(CN5CC6(C5)CN(C(C)=O)C6)c(OC)n4)c3Cl)c2C)ccc1CN1CC2(C1)CN(C(C)=O)C2` [Example 538, 1-(6-((6-(3-(6-(4-((6-Acetyl-2,6-diazaspiro[3.3]heptan-2-yl)methyl)-3-methoxyphenyl)-5-methylpyrimidin-4-yl)-2-chlorophenyl)-2-methoxypyridin-3-yl)methyl)-2,6-diazaspiro[3.3]heptan-2-yl)ethan-1-one], for which the EC50 in test [1] is at least 10000 nM. Also, the IC50 in test [2] came out at 2.59 nM.

`COc1cc(-c2ncnc(-c3cccc(-c4ccc(CNC5CCN(C(C)=O)CC5)c(OC)n4)c3Cl)c2Cl)ccc1CNC1CCN(C(C)=O)CC1` [Example 540, 1-(4-(((6-(3-(6-(4-(((1-Acetylpiperidin-4-yl)amino)methyl)-3-methoxyphenyl)-5-chloropyrimidin-4-yl)-2-chlorophenyl)-2-methoxypyridin-3-yl)methyl)amino)piperidin-1-yl)ethan-1-one] gave a concentration giving a half-maximal response (EC50) in test [1] of 86.6 nM. Besides, in test [2], the IC50 was found to be 0.5 nM.

Take `COc1cc(-c2nccc(-c3cccc(-c4ccc(CN[C@@H]5CCC(=O)NC5)c(OC)n4)c3Cl)c2Cl)ccc1CNC1CCN(C(C)=O)CC1` [Example 541, (R)-5-(((6-(3-(2-(4-(((1-Acetylpiperidin-4-yl)amino)methyl)-3-methoxyphenyl)-3-chloropyridin-4-yl)-2-chlorophenyl)-2-methoxypyridin-3-yl)methyl)amino)piperidin-2-one]: a half-maximal response in test [1] (EC50) required 93.4 nM. The same compound came in with a concentration for half-maximal inhibition (IC50) in test [2] of 0.79 nM.

As for `COc1cc(-c2nccc(-c3cccc(-c4ccc(CN[C@H]5CCC(=O)NC5)c(OC)n4)c3Cl)c2Cl)ccc1CNC1CCN(C(C)=O)CC1` [Example 542, (S)-5-(((6-(3-(2-(4-(((1-Acetylpiperidin-4-yl)amino)methyl)-3-methoxyphenyl)-3-chloropyridin-4-yl)-2-chlorophenyl)-2-methoxypyridin-3-yl)methyl)amino)piperidin-2-one], in test [1], a half-maximal effect (EC50) was put at 79.2 nM. This compound also came in with an IC50 in test [2] of 0.53 nM.

With `COc1cc(-c2ncnc(-c3cccc(-c4ccc(CNC[C@@H]5CCC(=O)N5)c(OC)n4)c3Cl)c2Cl)ccc1CNC[C@@H]1CCC(=O)N1` [Example 543, (S)-5-((((6-(2-chloro-3-(5-chloro-6-(3-methoxy-4-(((((S)-5-oxopyrrolidin-2-yl)methyl)amino)methyl)phenyl)pyrimidin-4-yl)phenyl)-2-methoxypyridin-3-yl)methyl)amino)methyl)pyrrolidin-2-one], the EC50 in test [1] was found to be 17.5 nM. Further, the midpoint of inhibition in test [2], the IC50, lay at 0.29 nM.

In the case of `COCCC(=O)N1CCC(NCc2ccc(-c3nccc(-c4cccc(-c5ccc(CNC6CCN(C(=O)CCOC)CC6)c(OC)n5)c4Cl)c3Cl)cc2OC)CC1` [Example 546, 1-(4-(((6-(2-Chloro-3-(3-chloro-2-(3-methoxy-4-(((1-(3-methoxypropanoyl)piperidin-4-yl)amino)methyl)phenyl)pyridin-4-yl)phenyl)-2-methoxypyridin-3-yl)methyl)amino)piperidin-1-yl)-3-methoxypropan-1-one], a half-maximal response in test [1] (EC50) required 19.5 nM. The compound also returned an IC50 in test [2] of 1.25 nM.

Regarding `COc1nc(-c2ccnc(-c3cccc4c3CC[C@@H]4Oc3nc(OC)c(CNC4CCN(C(C)=O)CC4)cc3C(F)(F)F)c2Cl)ccc1CN1CC2(CNC(=O)C2)C1` [Example 551, (S)-2-((2′-(1-((5-(((1-Acetylpiperidin-4-yl)amino)methyl)-6-methoxy-3-(trifluoromethyl)pyridin-2-yl)oxy)-2,3-dihydro-1H-inden-4-yl)-3′-chloro-6-methoxy-[2,4′-bipyridin]-5-yl)methyl)-2,6-diazaspiro[3.4]octan-7-one], in test [1], a half-maximal response (EC50) required 182 nM. The IC50 in test [2] is 0.32 nM.

With `COc1nc(-c2ccnc(-c3cccc4c3CC[C@@H]4Oc3nc(OC)c(CNC4CCOCC4)cc3C(F)(F)F)c2Cl)ccc1CN1CC2(CNC(=O)C2)C1` [Example 552, (S)-2-((3′-Chloro-6-methoxy-2′-(1-((6-methoxy-5-(((tetrahydro-2H-pyran-4-yl)amino)methyl)-3-(trifluoromethyl)pyridin-2-yl)oxy)-2,3-dihydro-1H-inden-4-yl)-[2,4′-bipyridin]-5-yl)methyl)-2,6-diazaspiro[3.4]octan-7-one], the EC50 in test [1] came out at 144 nM. Further, half-maximal inhibition in test [2] (IC50) was put at 0.25 nM.

The compound `COc1cc(-c2nccc(-c3cccc(-c4ccc5c(CNC6CCOCC6)cn(C)c5n4)c3Cl)c2Cl)ccc1CNC1CCN(C(C)=O)CC1` [Example 556, 1-(4-((4-(3-Chloro-4-(2-chloro-3-(1-methyl-3-(((tetrahydro-2H-pyran-4-yl)amino)methyl)-1H-pyrrolo[2,3-b]pyridin-6-yl)phenyl)pyridin-2-yl)-2-methoxybenzyl)amino)piperidin-1-yl)ethan-1-one] displayed an EC50 in test [1] of 222 nM. For the same compound, the IC50 in test [2] came to 1.22 nM.

On to `COc1cc(-c2nccc(-c3cccc(-c4ccc5c(CNCCO)cn(C)c5n4)c3Cl)c2Cl)ccc1CNC1CCN(C(C)=O)CC1` [Example 559, 1-(4-((4-(3-Chloro-4-(2-chloro-3-(3-(((2-hydroxyethyl)amino)methyl)-1-methyl-1H-pyrrolo[2,3-b]pyridin-6-yl)phenyl)pyridin-2-yl)-2-methoxybenzyl)amino)piperidin-1-yl)ethan-1-one], for which the EC50 in test [1] came out at 73.2 nM. The IC50 in test [2] turned out to be 1.61 nM.

Regarding `COc1cc(-c2nccc(-c3cccc(-c4cnc(CNC5CCN(C(C)=O)CC5)c(OC)c4)c3Cl)c2Cl)ccc1CNC1CCN(C(C)=O)CC1` [Example 565, 1-(4-(((5-(3-(2-(4-(((1-acetylpiperidin-4-yl)amino)methyl)-3-methoxyphenyl)-3-chloropyridin-4-yl)-2-chlorophenyl)-3-methoxypyridin-2-yl)methyl)amino)piperidin-1-yl)ethan-1-one], the EC50 in test [1] turned out to be 1040 nM. Moreover, the IC50 in test [2] came to 1.72 nM.

In the case of `COc1cc(-c2nccc(-c3cccc(-c4ccc(CN5CC6(COC6)C5)c(OC)n4)c3C(F)(F)F)c2Cl)ccc1CN1CC2(COC2)C1` [Example 578, 6-(4-(4-(3-(5-((2-Oxa-6-azaspiro[3.3]heptan-6-yl)methyl)-6-methoxypyridin-2-yl)-2-(trifluoromethyl)phenyl)-3-chloropyridin-2-yl)-2-methoxybenzyl)-2-oxa-6-azaspiro[3.3]heptane], the EC50 in test [1] was at least 10000 nM. Also, it took 70.3 nM to reach half-maximal inhibition in test [2] (IC50).

Compound `COc1nc(-c2cccc(-c3ccnc(-c4ccc5c(c4)S(=O)(=O)CCN(C[C@@H]4CCC(=O)N4)C5)c3Cl)c2Cl)ccc1CNC[C@@H]1CCC(=O)N1` [Example 582, (S)-5-((((6-(2-Chloro-3-(3-chloro-2-(1,1-dioxido-4-(((S)-5-oxopyrrolidin-2-yl)methyl)-2,3,4,5-tetrahydrobenzo[f][1,4]thiazepin-8-yl)pyridin-4-yl)phenyl)-2-methoxypyridin-3-yl)methyl)amino)methyl)pyrrolidin-2-one] registered an EC50 in test [1] of 1040 nM. Moreover, the IC50 in test [2] was 1.58 nM.

On to `CCOc1cc(-c2nccc(-c3cccc(-c4ccc(CNC5CCN(C(C)=O)CC5)c(OC)n4)c3Cl)c2Cl)cn2nc(CN[C@H]3C[C@](C)(O)C3)nc12` [Example 584, 1-(4-(((6-(2-Chloro-3-(3-chloro-2-(8-ethoxy-2-((((1r,3r)-3-hydroxy-3-methylcyclobutyl)amino)methyl)-[1,2,4]triazolo[1,5-a]pyridin-6-yl)pyridin-4-yl)phenyl)-2-methoxypyridin-3-yl)methyl)amino)piperidin-1-yl)ethan-1-one], for which, in test [1], the EC50 was at least 10000 nM. In test [2], this compound gave an IC50 of 2.21 nM.

Regarding `COc1cc(-c2nccc(-c3cccc(-c4ccc(CNCCCF)c(OC)n4)c3C(F)(F)F)c2Cl)ccc1CNCCCF` [Example 587, N-((6-(3-(3-Chloro-2-(4-(((3-fluoropropyl)amino)methyl)-3-methoxyphenyl)pyridin-4-yl)-2-(trifluoromethyl)phenyl)-2-methoxypyridin-3-yl)methyl)-3-fluoropropan-1-amine], in test [1], the EC50 was at least 10000 nM. This compound also registered a half-inhibitory concentration (IC50) in test [2] of 160 nM.

In test [1], `COc1cc(-c2nccc(-c3cccc(-c4ccc(CNC56CC(CO)(C5)C6)c(OC)n4)c3Cl)c2Cl)ccc1CNC12CC(CO)(C1)C2` [Example 591, (3-(((6-(2-chloro-3-(3-chloro-2-(4-(((3-(hydroxymethyl)bicyclo[1.1.1]pentan-1-yl)amino)methyl)-3-methoxyphenyl)pyridin-4-yl)phenyl)-2-methoxypyridin-3-yl)methyl)amino)bicyclo[1.1.1]pentan-1-yl)methanol] yielded an EC50 of 469 nM. The IC50 in test [2] amounted to 24.5 nM.

As for `COc1cc(-c2ncnc(-c3cccc(-c4ccc(CN[C@H]5C[C@H](O)C5)c(OC)n4)c3Cl)c2Cl)ccc1CN[C@H]1C[C@H](O)C1` [Example 593, (1r,3r)-3-(((6-(2-Chloro-3-(5-chloro-6-(4-((((1r,3r)-3-hydroxycyclobutyl)amino)methyl)-3-methoxyphenyl)pyrimidin-4-yl)phenyl)-2-methoxypyridin-3-yl)methyl)amino)cyclobutan-1-ol], it took 104 nM to reach a half-maximal effect in test [1] (EC50). Besides, the IC50 in test [2] came out at 0.16 nM.

For the compound `COc1nc(-c2cccc(-c3ccnc(-c4cc(OC)c5nc(CN[C@H]6CC[C@H](O)CC6)nn5c4)c3Cl)c2Cl)ccc1CNC1CCN(C(C)=O)CC1` [Example 595, 1-(4-(((6-(2-Chloro-3-(3-chloro-2-(2-((((1r,4r)-4-hydroxycyclohexyl)amino)methyl)-8-methoxy-[1,2,4]triazolo[1,5-a]pyridin-6-yl)pyridin-4-yl)phenyl)-2-methoxypyridin-3-yl)methyl)amino)piperidin-1-yl)ethan-1-one], the EC50 in test [1] turned out to be 211 nM. Also, in test [2], 0.38 nM corresponded to half-maximal inhibition (IC50).

With `COc1cc(-c2nccc(-c3cccc(-c4ccc([C@H](C)NC5CCN(C(C)=O)CC5)c(OC)n4)c3Cl)c2Cl)ccc1[C@H](C)NC1CCN(C(C)=O)CC1` [Example 599, 1-(4-(((S)-1-(6-(3-(2-(4-((S)-1-((1-Acetylpiperidin-4-yl)amino)ethyl)-3-methoxyphenyl)-3-chloropyridin-4-yl)-2-chlorophenyl)-2-methoxypyridin-3-yl)ethyl)amino)piperidin-1-yl)ethan-1-one], the concentration giving a half-maximal response (EC50) in test [1] is at least 10000 nM. Besides, half-maximal inhibition in test [2] (IC50) was put at 1.01 nM.

The values are drawn from patent US20240246964A1 (Arbutus Biopharma Corporation, priority 2021, published 2024).
